This assay concerns the target T1, SrtB (sortase B, CD630_27180) (Clostridioides difficile, UniProt Q183F3).
T1 construct: SrtBΔN26 (N-terminal transmembrane residues 2–25 replaced with a six-histidine tag)
Description: FRET peptide cleavage assay (d-PVPPKTGDS-e) with purified recombinant SrtBΔN26. Type of assay: biochemical.

Where two headings read alike, the source gives them in different places.

The term IC50 denotes the point on the concentration scale where inhibition reaches its midpoint.

T1 sequence (Q183F3 entry or part of it): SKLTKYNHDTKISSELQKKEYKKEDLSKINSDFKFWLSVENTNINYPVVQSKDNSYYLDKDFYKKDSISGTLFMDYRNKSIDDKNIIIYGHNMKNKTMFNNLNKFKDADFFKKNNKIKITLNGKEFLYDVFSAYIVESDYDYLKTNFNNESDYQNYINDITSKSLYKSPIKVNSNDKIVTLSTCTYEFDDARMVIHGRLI

As for `C[N+](C)(C)CCSS(C)(=O)=O` [MTSET, 2-(trimethylamonium)ethylmethanethiosulfonate], the IC50 turned out to be 287 ± 16.6 µM.
As to LSHTM-0040 [LSHTM40], the IC50 (read-out: IC50) stood at 63.1 ± 8.8 µM.
The same measure, in the same setting: the same measure for LSHTM-0050 [LSHTM50]: 60.1 ± 4.7 µM; for LSHTM-0052 [LSHTM52]: 44.1 ± 6.9 µM.
